Measurements from patent US8592456B2 (4SC Discovery GmbH, priority 2011, dated 2013).
Where two headings read alike, the source gives them in different places.

What was measured:
Assay type in all cases: cell-based
IL-17FF = IL-17FF production by PHA-stimulated human PBMC (IL-17F ELISA)
Experimental: (§1) Analysis of Proliferation of and Cytokine Production by Human PBMC Stimulated with PHA
(§2) Peripheral blood mononuclear cells (PBMC) from healthy human donors were purified using Accuspin™ System-Histopaque-1077 (Sigma) according to the protocol recommended by the manufacturer. Purified PBMC were then washed twice with phosphate-buffered saline (PBS) and resuspended in RPMI1640 culture medium supplemented with 10% dialyzed heat inactivated fetal calf serum, 1.5 mM L-glutamine, 100 U penicillin/ml, and […] (all from PAN Biotech, Aidenbach, Germany). For stimulation, PBMC were seeded at 1×10^5 cells/well, activated with 2 μg/ml phytohaemagglutinin (PHA, Sigma) and incubated with the test compounds for 48 hours. IL-17A, IL-17F and INF-γ were then determined in the culture supernatant using a Luminex BioPlex system, following the manufacturer's instructions (BioRad, Munich, Germany). For screening, compounds were used at 10, 1, 0.1 and 0.01 μM. To determine the IC50, compounds were titrated semilogarithmically.
(§3) Cytokines were determined in the aforementioned culture supernatant using the following methods: IL-17AA/AF was measured using the Luminex BioPlex system (BioRad, Munich, Germany); IL-17AA using the human homodimer IL-17A ELISA Ready Set Go Kit from eBioscience (Frankfurt, Germany); IL-17FF using the human IL-17F ELI-Pair from Hölzel DiagnosticaGmBH (Köln, Germany); and IFN-γ using the OptElA human IFN-g ELISA from BD Bioscience (Heidelberg, Germany), all following the manufacturer's instructions.

IFNγ = experiment: IFN-γ production by PHA-stimulated human PBMC (IFN-g ELISA); settings: 48 h
Experimental: as §1
as §2, with “For stimulation, PBMC were seeded at 1×10^5 cells/well, activated with 2 μg/ml phytohaemagglutinin (PHA, Sigma) and incubated with the test compounds for 48 hours.” left out, “For screening, compounds were used at 10, 1, 0.1 and 0.01 μM. To determine the IC50, compounds were titrated semilogarithmically.” left out
as §3

[1] = tested on: PBMC (T cell proliferation); experiment: T cell proliferation assay, PHA-stimulated human PBMC (BrdU ELISA)
Method in brief: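 BrdU ELISA readout of proliferation at 48 hours. Cells: human PBMC from healthy donors in 10% dialyzed FCS/RPMI1640, 1×10^5 per well, activated by 2 μg/ml phytohaemagglutinin in the presence of compound.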

[2] = Homo sapiens, 48 h, read-out: IC50 (Tcell proliferation)
[3] = Homo sapiens, 48 h, read-out: D: IC50 (Tcell proliferation)
[4] = PHA-stimulated human PBMC, 48 hours, BrdU, column D, activity classes 1-4, read-out: IC50 (Tcell proliferation)
[5] = human PBMC, 2 μg/ml PHA, 48 hours, BrdU, read-out: D: IC50 (Tcell proliferation)

Structure (SMILES) | IC50 [1, 5] [nM] | further results
Cc1csc(-c2c(-c3c(F)cccc3Cl)noc2-c2cnn(-c3cccc(Cl)c3)c2C(F)(F)F)n1 [Example I-4] |  | IC50 (IL-17FF; Homo sapiens, PBMC, 48 h, read-out: IC50 (IL-17FF)): < 10 nM; IC50 (IFNγ; read-out: IC50 (IFNγ)): < 10 nM; IC50 [1, 2]: < 10 nM
CCOC(=O)c1c(-c2c(F)cccc2Cl)noc1-c1cnn(-c2ccccc2Cl)c1C(F)(F)F [Example B-33, ethyl 3-(2-chloro-6-fluorophenyl)-5-(1-(2-chlorophenyl)-5-(trifluoromethyl)-1H-pyrazol-4-yl)isoxazole-4-carboxylate] |  | IC50 (IL-17FF; Homo sapiens, PBMC, 48 h, read-out: B: IC50 (IL-17FF)): 100 to 1000 nM; IC50 (IFNγ; read-out: C: IC50 (IFNγ)): 100 to 1000 nM; IC50 [1, 3]: 100 to 1000 nM
Fc1cccc(Cl)c1-c1noc(-c2cnn(-c3cccc(Cl)c3)c2C(F)(F)F)c1-c1nccs1 [Example I-5, 3-(2-chloro-6-fluorophenyl)-5-(1-(3-chlorophenyl)-5-(trifluoromethyl)-1H-pyrazol-4-yl)-4-(thiazol-2-yl)isoxazole] |  | IC50 [1, 4]: < 10 nM
Fc1ccc(-n2ncc(-c3onc(-c4c(F)cccc4Cl)c3Br)c2C(F)(F)F)c(F)c1 [Example B-24, 4-bromo-3-(2-chloro-6-fluorophenyl)-5-(1-(2,4-difluorophenyl)-5-(trifluoromethyl)-1H-pyrazol-4-yl)isoxazole] | 1000 to 10000 | 
CCOC(=O)c1c(-c2c(F)cccc2Cl)noc1-c1cnn(-c2cccc(S(N)(=O)=O)c2)c1C(F)(F)F [Example B-43, ethyl 3-(2-chloro-6-fluorophenyl)-5-(1-(3-sulfamoylphenyl)-5-(trifluoromethyl)-1H-pyrazol-4-yl)-isoxazole-4-carboxylate] | 1000 to 10000 | 
NC(=S)c1c(-c2c(F)cccc2Cl)noc1-c1cnn(-c2ccccc2F)c1C(F)(F)F [Example B-102, 3-(2-chloro-6-fluorophenyl)-5-(1-(2-fluorophenyl)-5-(trifluoromethyl)-1H-pyrazol-4-yl)isoxazole-4-carbothioamide] | 100 to 1000 | 
CCOC(=O)c1c(-c2c(F)cccc2Cl)noc1-c1cnn(-c2ccccc2N)c1C(F)(F)F [Example B-98, ethyl 5-(1-(2-aminophenyl)-5-(trifluoromethyl)-1H-pyrazol-4-yl)-3-(2-chloro-6-fluorophenyl)isoxazole-4-carboxylate] |  | IC50 [1, 3]: 10 to 100 nM
CCOC(=O)c1c(-c2c(Cl)cncc2Cl)noc1-c1cnn(-c2cccnc2)c1C(F)(F)F [Example B-12, ethyl 3-(3,5-dichloropyridin-4-yl)-5-(1-(pyridin-3-yl)-5-(trifluoromethyl)-1H-pyrazol-4-yl)isoxazole-4-carboxylate] | 100 to 1000 | 
O=C(NC1CCCCC1)c1c(-c2c(F)cccc2Cl)noc1-c1cnn(-c2ccccc2F)c1C(F)(F)F [Example 18, 3-(2-chloro-6-fluorophenyl)-N-cyclohexyl-5-(1-(2-fluorophenyl)-5-(trifluoromethyl)-1H-pyrazol-4-yl)isoxazole-4-carboxamide] | 1000 to 10000 | 
O=C(O)c1c(-c2c(F)cccc2Cl)noc1-c1cnn(-c2cccc(Cl)c2)c1C(F)(F)F [Example B-18, 3-(2-chloro-6-fluorophenyl)-5-(1-(3-chlorophenyl)-5-(trifluoromethyl)-1H-pyrazol-4-yl)isoxazole-4-carboxylic acid] |  | IC50 (IL-17FF; human PBMC, 2 μg/ml PHA, 48 hours, read-out: B: IC50 (IL-17FF)): 1000 to 10000 nM
COC(=O)c1c(-c2c(F)cccc2Cl)noc1-c1cnn(-c2c(Cl)cccc2Cl)c1C(F)(F)F [Example 70, methyl 3-(2-chloro-6-fluorophenyl)-5-(1-(2,6-dichlorophenyl)-5-(trifluoromethyl)-1H-pyrazol-4-yl)isoxazole-4-carboxylate] | 100 to 1000 | 
Cc1nnc(-c2c(-c3c(F)cccc3Cl)noc2-c2cnn(-c3ccccn3)c2C(F)(F)F)o1 [IB-26, 2-(3-(2-chloro-6-fluorophenyl)-5-(1-(pyridin-2-yl)-5-(trifluoromethyl)-1H-pyrazol-4-yl)isoxazol-4-yl)-5-methyl-1,3,4-oxadiazole] |  | IC50 [1, 4]: 100 to 1000 nM
Fc1cccc(Cl)c1-c1noc(-c2cnn(-c3ccccc3Cl)c2C(F)(F)F)c1-c1nccs1 [IB-29, 3-(2-chloro-6-fluorophenyl)-5-(1-(2-chlorophenyl)-5-(trifluoromethyl)-1H-pyrazol-4-yl)-4-(thiazol-2-yl)isoxazole] |  | IC50 [1, 2]: 1000 to 10000 nM
CNC(=O)c1c(-c2ccccc2Cl)noc1-c1cnn(-c2cccc(F)c2)c1C(F)(F)F [Example 96, 3-(2-chlorophenyl)-5-(1-(3-fluorophenyl)-5-(trifluoro-methyl)-1H-pyrazol-4-yl)-N-methylisoxazole-4-carboxamide] | 100 to 1000 | 
CCOC(=O)c1c(-c2ccncc2F)noc1-c1cnn(-c2ccccc2Cl)c1C(F)(F)F [Example B-13, ethyl 5-(1-(2-chlorophenyl)-5-(trifluoromethyl)-1H-pyrazol-4-yl)-3-(3-fluoropyridin-4-yl)isoxazole-4-carboxylate] | 10 to 100 | 
NNC(=O)c1c(-c2c(F)cccc2Cl)noc1-c1cnn(-c2cccc(F)c2)c1C(F)(F)F [Example 133, 3-(2-chloro-6-fluorophenyl)-5-(1-(3-fluorophenyl)-5-(trifluoromethyl)-1H-pyrazol-4-yl)isoxazole-4-carbohydrazide] | 1000 to 10000 | 
COC(=O)c1c(-c2c(Cl)cccc2Cl)noc1-c1cnn(-c2cccc(Cl)c2)c1C(F)(F)F [Example B-75, methyl 5-(1-(3-chlorophenyl)-5-(trifluoromethyl)-1H-pyrazol-4-yl)-3-(2,6-dichlorophenyl)isoxazole-4-carboxylate] | < 10 | 
CSC(=O)c1c(-c2c(F)cccc2Cl)noc1-c1cnn(-c2cccnc2)c1C(F)(F)F [Example B-68, S-methyl 3-(2-chloro-6-fluorophenyl)-5-(1-(pyridin-3-yl)-5-(trifluoromethyl)-1H-pyrazol-4-yl)isoxazole-4-carbothioate] | 10 to 100 | 
CCOC(=O)c1c(-c2c(F)cccc2Cl)noc1-c1cnn(-c2cccnc2)c1C(F)(F)F [Example B-37, ethyl 3-(2-chloro-6-fluorophenyl)-5-(1-(pyridin-3-yl)-5-(trifluoromethyl)-1H-pyrazol-4-yl)-isoxazole-4-carboxylate] | < 10 | 
COC(=O)c1c(-c2c(F)cccc2Cl)noc1-c1cnn(-c2ccncc2)c1C(F)(F)F [Example B-69, methyl 3-(2-chloro-6-fluorophenyl)-5-(1-(pyridin-4-yl)-5-(trifluoromethyl)-1H-pyrazol-4-yl)isoxazole-4-carboxylate] | 10 to 100 | 
CCOC(=O)c1c(-c2c(F)cccc2Cl)noc1-c1cnn(-c2ccccc2NC(C)=O)c1C(F)(F)F [Example B-1] | 1000 to 10000 | 
CCOC(=O)c1c(-c2c(F)cccc2Cl)noc1-c1cnn(-c2ccccn2)c1C(F)(F)F [Example B-84, ethyl 3-(2-chloro-6-fluorophenyl)-5-(1-(pyridin-2-yl)-5-(trifluoromethyl)-1H-pyrazol-4-yl)isoxazole-4-carboxylate] | < 10 | 
O=C(c1c(-c2c(F)cccc2Cl)noc1-c1cnn(-c2cccnc2)c1C(F)(F)F)N1CCCO1 [Example B-54, (3-(2-chloro-6-fluorophenyl)-5-(1-(pyridin-3-yl)-5-(trifluoromethyl)-1H-pyrazol-4-yl)isoxazol-4-yl)(isoxazolidin-2-yl)methanone] | 1000 to 10000 | 
CCOC(=O)c1c(-c2c(F)cccc2Cl)noc1-c1cnn(-c2ccccc2[N+](=O)[O-])c1C(F)(F)F [Example B-95, 3-(2-chloro-6-fluorophenyl)-5-(1-(2-nitrophenyl)-5-(trifluoromethyl)-1H-pyrazol-4-yl)isoxazole-4-carboxylate] | 100 to 1000 | 
